Reference: paper PMC5642494 (Oncotarget, 2017)

Columns and labels:
MCF7 cells = test: Multiplexed cell number, β-gal and TUNEL in MCF7; assay type: cell-based, human; settings: 0.125 µM or 0.5 µM, 1-5 DT
Procedure: The viable cell number was determined by PI staining, the % of β-gal positive cells was determined using an antibody to β-gal, and the % of Tunel positive cells was determined by the incorporation of labelled dUTP. The data are plotted as the mean (+/- SD) of 2 experiments for CDK4 and CDK6 inhibitor treatment, and the mean of 6 experiments (+/- SD) for untreated samples. The duration of treatment is plotted along the x-axis in doubling times (DT) for MCF7 cells.
After treatment, cells were fixed, washed with PBS, permeabilized and β-gal was detected using anti-β-galactosidase antibody; for multiplexed assays, TUNEL staining was carried out using Roche TUNEL reagents as indicated above. Nuclei were also stained with PI for total cell counting. Plates were read in an Acumen Explorer Ex3 (TTP Labtech) and raw data were analyzed with Cellista software. Outputs were expressed as percentages of each identified subpopulation 1) positive β-gal, and 2) total cell number. The percentages of β-gal positive cells, TUNEL positive cells, and cell numbers were plotted in Microsoft Excel.

[1] = tested on: HR+ and HR- breast cancer cell lines; test: Proliferation after washouts (EdU Click-iT) in breast cancer lines; assay type: cell-based, human; settings: HR+ versus HR- breast cancer cell lines; exposure 2 hr, 24 hr or 72 hrs followed by washout
Procedure: Images were SA-β-galactosidase immunocytochemical labeling taken by fluorescent microscopy using a Leica DMiL. […] SA-β-gal Cell samples were lysed after treatment with expression was determined using the Senescence Cells 100 μL lysis buffer and transferred to a 96-well plate. Histochemical Staining Kit (Sigma, CS0030) following 30 μL of each sample were transferred into deep well the vendor 's manual. Images were taken at 100x by bright plates using TECAN-EVO Workstation. Samples were field microscopy (Leica DMiL). treated for derivatization of the metabolites of interest and internal standards. For this, 50 μL of derivatization reagent Proliferation studies after washouts (EdU Click- and 80 μL of internal standard (IS, SupplementaryTable iT®) 1), were added with multidrop, plates were vortexed for 5 mins and let sit for one hour at 4 °C. The IS used were the Cells were plated onto poly-D-lysine D or 13C-labeled commercial analogues of nine of the ten coated 96-well plates at a density of 2,000-6,000 metabolites, prepared at 25 μM in water (Supplementary viable cells per well, and treated with abemaciblib or Table 1). The derivatization reagents (from Sigma), […] washout schedule shown on Supplementary Figure 1A. […] EdU Samples were analyzed by LC-MS/MS under the detection was performed using the Click-iT High Content conditions described below. […] Cell images were captured using a Cellomics Arrayscan VTI and analyzed Analysis of the derivatized-extracted samples with the Target Activation bio-application V.3 reading in 4 was carried out with an Agilent 6460 Triple Quadrupole channels at a magnification of 10X. […] The software relative levels and sub-cellular localization of EdU were for data collection and treatment was Agilent Masshunter determined through the respective intensities and locations Workstation. Mobile phases for chromatography were: of Alexa-488 fluorescence. mobile phase A: formic acid (5 mM) and ammonium formate (10 mM) in water; mobile phase B: acetonitrile. […]

## CN(C)C(=O)c1cc2cnc(Nc3ccc(N4CCNCC4)cn3)nc2n1C1CCCC1 [ribociclib]
MCF7 cells
  TUNEL staining: only minor increases in TUNEL staining were observed and only after longer treatment times
  percentage of cells with β-gal staining compared with abemaciclib: lower

## CC(=O)c1c(C)c2cnc(Nc3ccc(N4CCNCC4)cn3)nc2n(C2CCCC2)c1=O [palbociclib]
MCF7 cells
  TUNEL staining: only minor increases in TUNEL staining were observed and only after longer treatment times
  percentage of cells with β-gal staining compared with abemaciclib: lower
[1]
  DNA synthesis / proliferation as measured by EdU incorporation: decrease in proliferation preferentially for HR+ cell lines; however, this effect was only observed after longer treatment times
